This series can be described thus: Human HepG2 cell viability assay in 384 well format. The format is toxicity, cell-based. More on the design: dose 125 nL, time 70.5 hour; cytotoxicity at 70.5 h: concentration not given beside the values. The note with it: HepG2 cells, read-out: Inhibition.
On to `O=c1[nH]ncn1-c1cccc(C(F)(F)F)c1`, for which the cytotoxicity at 70.5 h came to 1.41%.

As to `CC(=O)Cn1ncc(N2CCOCC2)cc1=O`, the cytotoxicity at 70.5 h was -0.483%.

In the case of `COc1ccsc1C(=O)NCCN1CCOCC1`, the cytotoxicity at 70.5 h was -7.25%.

In the case of `CNC(=O)c1cc2c(nc1NC(C)C)CCN(C(=O)NC(C)C)CC2`, the cytotoxicity at 70.5 h was -10.9%.

For the compound `Cc1nccc([C@@H]2C[C@@H]3CCN(S(C)(=O)=O)C[C@H]3O2)n1`, the cytotoxicity at 70.5 h is -10%.

Regarding `Cc1noc(C2CCC3(CCN(C(=O)c4c(C)noc4C)CC3)O2)n1` (configuration not stated), the cytotoxicity at 70.5 h is -5.47%.

As to `O=C1CCCN1Cc1ncn2c1CN(C(=O)c1cccc(F)c1)CCC2`, the cytotoxicity at 70.5 h is -13.4%.

For `O=C(O)c1ccccc1-n1cc(CN2CCC(c3cc[nH]n3)C2)cn1` (configuration not stated), the cytotoxicity at 70.5 h is -2.77%.

Take `CN(C)CC(=O)N1CCCC1c1ccccn1` (configuration not stated): the cytotoxicity at 70.5 h is -3.81%.

Turning to `Cc1ccc(C2CCCN(S(C)(=O)=O)C2)nc1` (configuration not stated), the cytotoxicity at 70.5 h was -2.08%.

Regarding `COCCC(=O)N1CCCC1c1nc(C)c2c(n1)N(C)C(=O)CC2` (configuration not stated), the cytotoxicity at 70.5 h was -3.97%.

`Cc1nccc(C2CCCN(S(=O)(=O)N3CCOCC3)C2)n1` (configuration not stated): the cytotoxicity at 70.5 h was 19.2%.

`Cc1cccc(-c2nccnc2C2CCN(C)CC2)c1C`: the cytotoxicity at 70.5 h amounted to 0.0925%.

On to `CN1CCN(c2ncccn2)CC1C(N)=O` (configuration not stated), for which the cytotoxicity at 70.5 h was determined as 36.7%.

For the compound `Cc1cccc(CNC(=O)CC2CCN(C(=O)C(C)C)CC2)n1`, the cytotoxicity at 70.5 h came to 6.37%.

In the case of `CC(C)Nc1n[nH]c2nc(C3CCN(C(=O)c4ccccn4)C3)ccc12` (configuration not stated), the cytotoxicity at 70.5 h is 8.59%.

On to `CN(C)S(=O)(=O)N1CC(c2ccnc(Nc3ccccn3)n2)C1`, for which the cytotoxicity at 70.5 h was -5.03%.

As for `Cn1cc(CN2CCCCC2c2ccc(-c3cnn(C)c3)nc2)cn1` (configuration not stated), the cytotoxicity at 70.5 h is -8.29%.

With `CN(C)c1nccc(C2CN(S(C)(=O)=O)C2)n1`, the cytotoxicity at 70.5 h was -1.11%.

Regarding `Cc1csc(Nc2cc(C3CN(c4ccncn4)C3)nc(C)n2)n1`, the cytotoxicity at 70.5 h was -8.67%.

With `O=C(NCC1CCOCC1)c1cc(-c2cccnc2)c2cnccc2n1`, the cytotoxicity at 70.5 h is -8.58%.

As to `CCCn1ncc(C(=O)NC(C)c2c(C)nn(CC)c2C)c1C` (configuration not stated), the cytotoxicity at 70.5 h was -8.47%.

For `COCC(=O)NCc1cnc(C)nc1-c1cn(C)c2ccc(OC)cc12`, the cytotoxicity at 70.5 h is -7.48%.

For `COc1ccccc1N1CC(NC(=O)Cn2cc(C(C)C)nn2)CC1=O` (configuration not stated), the cytotoxicity at 70.5 h is -9.11%.

On to `CCNC(=O)C1(Cc2cc(-c3ccccc3)no2)CCCN(C(C)=O)C1` (configuration not stated), for which the cytotoxicity at 70.5 h was 10.5%.

Regarding `Cc1cc(C)n(C2CCN(S(=O)(=O)N3CCOCC3)CC2)n1`, the cytotoxicity at 70.5 h was -6.85%.

With `Cc1cc(-c2nccs2)nc(C2CCN(Cc3ccccn3)CC2)n1`, the cytotoxicity at 70.5 h was -3.72%.

Consider `COCCNc1ncc(-c2cccc(OC)c2)c(-c2nccn2C)n1`, for which the cytotoxicity at 70.5 h was -7.42%.

For the compound `CNc1cnc(CC2COCCN(Cc3ccccc3)C2)cn1` (configuration not stated), the cytotoxicity at 70.5 h is -2.53%.

As for `CNc1cnc(CC2COCCN(Cc3cccc(C)n3)C2)cn1` (configuration not stated), the cytotoxicity at 70.5 h is -2.94%.

In the case of `CNc1cc(C2CN(Cc3cccnc3NC)CCO2)nc(C)n1` (configuration not stated), the cytotoxicity at 70.5 h was -2.49%.

Take `CNc1cnc(CC2COCCN(CCOc3ccccc3)C2)cn1` (configuration not stated): the cytotoxicity at 70.5 h was -1.63%.

As for `COCCN1CCC1c1cc(NC2CCCC2)nc(C)n1` (configuration not stated), the cytotoxicity at 70.5 h was -5.31%.

Turning to `O=c1[nH]cc(N2CCCCC2)c(=O)[nH]1`, the cytotoxicity at 70.5 h is -3.72%.

Regarding `CNc1ncccc1CN1CCN(C)CC(C(=O)N(C)C)C1` (configuration not stated), the cytotoxicity at 70.5 h turned out to be 14.6%.

For `CC(=O)N1CCCC(c2nc(N(C)C)ncc2-c2ccccc2)C1` (configuration not stated), the cytotoxicity at 70.5 h was 3.58%.

In the case of `CCN(CC)S(=O)(=O)N1C[C@@H](O)[C@H](Oc2cccc(F)c2)C1`, the cytotoxicity at 70.5 h was -6.35%.

On to `CC(=O)Nc1ccc(S(=O)(=O)N2CCOC(Cn3ccnc3)C2)cc1` (configuration not stated), for which the cytotoxicity at 70.5 h was -4.79%.

For `O=S(=O)(c1ccccc1)N1CCOCC(Cc2cccnc2)C1` (configuration not stated), the cytotoxicity at 70.5 h was -3.24%.

Consider `COCCNC(=O)C1(CCCc2cccnc2)CCCN1C` (configuration not stated), for which the cytotoxicity at 70.5 h is 13.5%.

Take `CNc1cccc(C2CCN(C(C)=O)CC2)n1`: the cytotoxicity at 70.5 h is -5.62%.

As to `CCC(=O)N1CCCC(c2nc(N(C)C)ncc2-c2ccc(F)cc2)C1` (configuration not stated), the cytotoxicity at 70.5 h is 3.25%.

On to `Cc1ncsc1C(=O)N1CCC(O)(Cn2c(C)cc3ccncc32)CC1`, for which the cytotoxicity at 70.5 h is -0.305%.

In the case of `Cc1cc(C(=O)N2CCC(O)(Cn3c(C)cc4ccncc43)CC2)on1`, the cytotoxicity at 70.5 h is -0.77%.

As to `CN1C[C@@H](C(=O)N2CCOCC2)[C@@]2(CCc3ccccc3C(=O)N2)C1`, the cytotoxicity at 70.5 h is -1.75%.

In the case of `O=C(c1cccnc1)N1Cc2ccccc2OCC1Cn1ccnc1` (configuration not stated), the cytotoxicity at 70.5 h worked out at 9.81%.

Turning to `Cc1csc2c(C3CCCN(C(=O)CCn4cncn4)C3)nc(C)n12` (configuration not stated), the cytotoxicity at 70.5 h is 1.05%.

As to `Cc1csc2c(C3CCCN(C(=O)CCn4ccnc4)C3)nc(C)n12` (configuration not stated), the cytotoxicity at 70.5 h was 17.3%.

On to `Cc1csc2c(C3CCCN(C(=O)CCCn4cncn4)C3)nc(C)n12` (configuration not stated), for which the cytotoxicity at 70.5 h was 2.61%.

For the compound `CC(C(=O)N1CCCC1)n1nc(-c2cccs2)cc(N)c1=O` (configuration not stated), the cytotoxicity at 70.5 h amounted to 5.25%.

Regarding `CC(C(=O)N1CCOCC1)n1nc(-c2cccs2)cc(N)c1=O` (configuration not stated), the cytotoxicity at 70.5 h amounted to 2.02%.

As to `CCCn1nc(C)c(CN(CCN(C)C)Cc2ccccn2)c1C`, the cytotoxicity at 70.5 h stood at 12.9%.

In the case of `CCn1nc(C)c(CN(CCCN(C)C)Cc2ccccn2)c1C`, the cytotoxicity at 70.5 h turned out to be 21.3%.

Consider `CN(C)c1ncc(I)c(C2CCCCN2C)n1` (configuration not stated), for which the cytotoxicity at 70.5 h was -3.55%.

As for `Cn1cc(CN(Cc2ccccn2)Cc2ccccc2Cl)cn1`, the cytotoxicity at 70.5 h was -1.3%.

Turning to `CN(C)Cc1cnc(C2CN(C(=O)c3ccccc3Cl)CCO2)[nH]1` (configuration not stated), the cytotoxicity at 70.5 h is -1.46%.

As for `CN1C(=O)CC[C@@H]2N(C(=O)CCc3cccnc3)CCCC[C@@]21C`, the cytotoxicity at 70.5 h was -1.68%.

Regarding `Cc1nn(C)cc1S(=O)(=O)N(C)[C@@H]1CCC[C@@H](n2ccnc2)[C@@H]1O`, the cytotoxicity at 70.5 h was 19.1%.

Take `CN1CCCC(Cc2nccnc2Cl)CC1` (configuration not stated): the cytotoxicity at 70.5 h is -3.4%.

For `CN([C@@H]1CCC[C@@H](n2ccnc2)[C@@H]1O)S(=O)(=O)c1cn(C)cn1`, the cytotoxicity at 70.5 h was 19.9%.

As for `COC1CCCOC12CCN(C(=O)c1ccc3[nH]nnc3c1)CC2` (configuration not stated), the cytotoxicity at 70.5 h was -5.57%.

Take `O=c1c(Cc2ccccc2)c(O)ccn1Cc1cccs1`: the cytotoxicity at 70.5 h was found to be 23.3%.

Turning to `COc1ccc(SCC2CNc3nc4ccccc4c(=O)n32)cc1` (configuration not stated), the cytotoxicity at 70.5 h amounted to 1.56%.

In the case of `O=c1c(Cc2ccccc2)c(O)ccn1CCc1ccccc1`, the cytotoxicity at 70.5 h was -3.9%.

On to `CC(=O)c1ccc(-c2cc(C(F)(F)F)cc(N(C)C)n2)cc1`, for which the cytotoxicity at 70.5 h was -7.82%.

For `O=C(NC1CC1)c1cc(C(F)(F)F)cc(C(=O)NC2CC2)n1`, the cytotoxicity at 70.5 h came to 23%.

In the case of `O=C(O)Cc1cn2cc(C(F)(F)F)ccc2n1`, the cytotoxicity at 70.5 h was -10.8%.

For `O=c1[nH]c2ncccc2n1C1CCCC1`, the cytotoxicity at 70.5 h is -0.61%.

On to `CC(O)c1cn(Cc2cccc(C(F)(F)F)c2)nn1` (configuration not stated), for which the cytotoxicity at 70.5 h is -4.44%.

With `CC(O)c1cn(Cc2ccc(Cl)cc2Cl)nn1` (configuration not stated), the cytotoxicity at 70.5 h is -7.31%.

Consider `OC1(CNc2ccc(F)cc2)CCNCC1`, for which the cytotoxicity at 70.5 h was -7.97%.

In the case of `O=C(CC(SC1CCCCC1)C(=O)O)c1ccc(Br)cc1` (configuration not stated), the cytotoxicity at 70.5 h amounted to 0.38%.

`Cc1ccc(NCC2(O)CCNCC2)cc1C`: the cytotoxicity at 70.5 h is -1.72%.

`O=C(CN1CCCCC1)Nc1cc(C(F)(F)F)ccc1-n1cccc1`: the cytotoxicity at 70.5 h is -9.88%.

`O=c1c2ccccc2nc2n1C(CSc1ccc(Cl)cc1Cl)CN2` (configuration not stated): the cytotoxicity at 70.5 h turned out to be 29.6%.

On to `CC(=O)c1sc(Nc2ccc(Cl)cn2)nc1C`, for which the cytotoxicity at 70.5 h is 31.3%.

In the case of `CC(C)CSCCN1CCCN(S(C)(=O)=O)CC1`, the cytotoxicity at 70.5 h was determined as 9.07%.

With `CN(CC(=O)NCC(F)(F)F)C(=O)c1ccc(C(=O)OC(C)(C)C)cc1`, the cytotoxicity at 70.5 h was -0.193%.

As to `O=S(=O)(c1cc(F)ccc1F)N1CCCC1c1ccncc1` (configuration not stated), the cytotoxicity at 70.5 h is -3.85%.

On to `CN(C(=O)NC1CC1)C1CCN(c2ccc(Cl)cc2)CC1`, for which the cytotoxicity at 70.5 h was -7.5%.

Regarding `CN(C(=O)Nc1ccncc1)C1CCN(c2ccc(Cl)cc2)CC1`, the cytotoxicity at 70.5 h stood at 1.01%.

On to `Cn1cc(C2CCCN2C(=O)c2cnc(-c3cccs3)s2)cn1` (configuration not stated), for which the cytotoxicity at 70.5 h was found to be 22.5%.

As for `CC1CCc2nc(NS(=O)(=O)c3cnn(C)c3)sc2C1` (configuration not stated), the cytotoxicity at 70.5 h was found to be 0.918%.

On to `OCc1c(Cl)ncn1-c1ccc(F)cc1`, for which the cytotoxicity at 70.5 h was found to be 2.53%.

`Cc1ccc(-n2cnc(Cl)c2CO)cc1`: the cytotoxicity at 70.5 h was -3.28%.

Turning to `OCc1c(Cl)ncn1-c1ccccc1`, the cytotoxicity at 70.5 h worked out at 0.513%.

In the case of `Cc1cccc(-n2cnc(Cl)c2CO)c1`, the cytotoxicity at 70.5 h is -0.946%.

For `c1ccc(-c2nc(CCNCc3ccccn3)co2)cc1`, the cytotoxicity at 70.5 h was -1.18%.

For `COc1ccc(Br)cc1SCCC(N)=O`, the cytotoxicity at 70.5 h is -0.68%.

As to `Cc1ccccc1C(C#N)NC(=O)CCCOc1cccnc1` (configuration not stated), the cytotoxicity at 70.5 h was -0.163%.

As to `CN(C(=O)CSc1ncc[nH]1)c1ccccc1`, the cytotoxicity at 70.5 h is 31.6%.

In the case of `CC(C)CSCCN1CCN(S(C)(=O)=O)CC1`, the cytotoxicity at 70.5 h was 0.763%.

Consider `Cc1cc(C(=O)NCCc2nc3c(s2)CCCC3)n(C)n1`, for which the cytotoxicity at 70.5 h is -3.4%.

For `COc1ccc(CN2CCCCC2c2n[nH]cc2-c2cc(C)no2)cc1` (configuration not stated), the cytotoxicity at 70.5 h was 11%.

`CN(C)c1ncc2c(O)nc(C3CCNCC3)cc2n1`: the cytotoxicity at 70.5 h was -6.95%.

Regarding `CN(C)c1ncc(I)c(C2CCCN2C)n1` (configuration not stated), the cytotoxicity at 70.5 h stood at 1.48%.

For `CCc1nc(-c2ccnc(N3CCNCC3)n2)no1`, the cytotoxicity at 70.5 h was -2.35%.

For `CCOC[C@H]1CC[C@H]2[C@H](CCN2C(=O)c2ccncc2F)O1`, the cytotoxicity at 70.5 h was -8.92%.

For `CN(C)C(=O)N1CCOCC2(CCN(c3ncccn3)C2)C1` (configuration not stated), the cytotoxicity at 70.5 h was -5.25%.

Consider `CO[C@@H]1CN(Cc2scnc2C)[C@@H]2CCCO[C@@H]21`, for which the cytotoxicity at 70.5 h is -4.62%.

Regarding `c1ccc(CN2C[C@@H]3CCCO[C@@H]3[C@H](Nc3ccccn3)C2)nc1`, the cytotoxicity at 70.5 h is -7.21%.

In the case of `Cc1cc(C)nc(NCCC(=O)NCCn2ccnc2C)n1`, the cytotoxicity at 70.5 h worked out at 3.01%.

(Values after ChEMBL document CHEMBL3507680, “University of Dundee, Gates Library screen for HepG2 cell viability”.)
